Measurements reported in ChEMBL document CHEMBL3880423, “Benzamide derivatives as histone deacetylase inhibitors with potent differentiation and anti-proliferation activity” (2009).
The source made the active and inactive calls.

Columns and labels:
Assay type in all cases: cell-based
[1] = target: T1, Estrogen receptor (Homo sapiens) (UniProt P03372); assay: Activation of ERalpha (unknown origin) expressed in human U2OS cells at 1 uM incubated for 24 hrs by luciferase reporter gene assay
T1 sequence (whole entry): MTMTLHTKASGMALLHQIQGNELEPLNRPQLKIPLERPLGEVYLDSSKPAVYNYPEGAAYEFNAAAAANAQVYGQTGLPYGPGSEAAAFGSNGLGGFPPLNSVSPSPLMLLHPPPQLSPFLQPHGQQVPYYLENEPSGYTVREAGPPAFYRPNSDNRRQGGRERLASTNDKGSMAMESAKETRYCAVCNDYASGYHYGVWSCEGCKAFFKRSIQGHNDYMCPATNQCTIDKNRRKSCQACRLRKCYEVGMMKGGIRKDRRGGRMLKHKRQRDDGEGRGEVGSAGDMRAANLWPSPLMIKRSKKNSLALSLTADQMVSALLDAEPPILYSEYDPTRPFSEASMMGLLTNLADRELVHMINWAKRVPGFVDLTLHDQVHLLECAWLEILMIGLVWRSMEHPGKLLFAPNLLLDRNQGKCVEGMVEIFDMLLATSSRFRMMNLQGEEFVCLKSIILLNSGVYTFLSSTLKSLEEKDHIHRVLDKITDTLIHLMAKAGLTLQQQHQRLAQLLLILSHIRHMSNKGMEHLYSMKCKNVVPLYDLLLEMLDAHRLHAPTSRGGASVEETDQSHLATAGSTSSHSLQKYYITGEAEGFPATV

[2] = target: Estrogen receptor beta (Homo sapiens) (UniProt Q92731); assay: Activation of ERbeta (unknown origin) expressed in human U2OS cells at 1 uM in presence of 0.01 uM E2 incubated for 24 hrs by luciferase reporter gene assay
Chain of Estrogen receptor beta (Homo sapiens) (Q92731 whole entry): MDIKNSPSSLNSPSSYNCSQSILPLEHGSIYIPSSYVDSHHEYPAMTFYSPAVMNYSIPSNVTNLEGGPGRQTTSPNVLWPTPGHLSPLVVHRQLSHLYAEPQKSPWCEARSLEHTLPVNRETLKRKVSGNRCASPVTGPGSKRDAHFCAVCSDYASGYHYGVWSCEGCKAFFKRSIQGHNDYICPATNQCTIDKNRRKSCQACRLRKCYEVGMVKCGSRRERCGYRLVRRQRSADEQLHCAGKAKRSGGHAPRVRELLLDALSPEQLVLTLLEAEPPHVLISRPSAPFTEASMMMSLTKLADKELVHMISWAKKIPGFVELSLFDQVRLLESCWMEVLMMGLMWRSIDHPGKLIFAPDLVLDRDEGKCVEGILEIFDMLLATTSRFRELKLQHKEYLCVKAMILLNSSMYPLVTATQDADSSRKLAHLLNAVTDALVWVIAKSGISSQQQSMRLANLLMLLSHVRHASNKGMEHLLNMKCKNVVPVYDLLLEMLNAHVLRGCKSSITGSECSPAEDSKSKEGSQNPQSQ

[3] = target: Estrogen receptor beta (Homo sapiens) (UniProt Q92731); assay: Activation of ERbeta (unknown origin) expressed in human U2OS cells at 1 uM incubated for 24 hrs by luciferase reporter gene assay
[4] = target: T2, Glucocorticoid receptor (Homo sapiens) (UniProt P04150); assay: Activation of glulcocorticoid receptor (unknown origin) expressed in human U2OS cells at 1 uM incubated for 24 hrs by luciferase reporter gene assay
T2 sequence (whole entry): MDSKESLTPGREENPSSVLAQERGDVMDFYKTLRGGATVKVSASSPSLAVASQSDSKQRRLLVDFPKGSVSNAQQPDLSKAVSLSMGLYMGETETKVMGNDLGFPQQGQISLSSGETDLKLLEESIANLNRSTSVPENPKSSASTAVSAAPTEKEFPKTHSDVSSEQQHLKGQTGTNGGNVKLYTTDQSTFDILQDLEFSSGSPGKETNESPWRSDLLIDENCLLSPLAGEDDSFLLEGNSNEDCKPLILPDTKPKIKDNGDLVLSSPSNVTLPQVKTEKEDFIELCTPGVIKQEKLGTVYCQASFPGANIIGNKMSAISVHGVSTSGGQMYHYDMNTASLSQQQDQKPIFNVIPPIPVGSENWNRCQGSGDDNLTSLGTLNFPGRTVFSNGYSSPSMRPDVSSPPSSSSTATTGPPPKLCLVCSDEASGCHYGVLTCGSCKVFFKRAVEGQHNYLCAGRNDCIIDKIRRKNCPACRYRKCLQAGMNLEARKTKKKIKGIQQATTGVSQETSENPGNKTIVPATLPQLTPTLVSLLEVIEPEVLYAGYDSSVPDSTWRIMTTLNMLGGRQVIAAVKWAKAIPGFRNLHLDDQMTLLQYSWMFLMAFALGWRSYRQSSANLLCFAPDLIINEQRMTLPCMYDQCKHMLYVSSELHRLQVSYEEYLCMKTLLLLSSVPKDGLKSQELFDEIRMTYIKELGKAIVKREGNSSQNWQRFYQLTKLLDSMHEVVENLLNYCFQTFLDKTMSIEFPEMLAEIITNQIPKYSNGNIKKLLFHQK

[5] = target: T3, Peroxisome proliferator-activated receptor gamma (Homo sapiens) (UniProt P37231); assay: Activation of PPARG (unknown origin) expressed in human U2OS cells at 1 uM incubated for 24 hrs by luciferase reporter gene assay
T3 sequence (whole entry): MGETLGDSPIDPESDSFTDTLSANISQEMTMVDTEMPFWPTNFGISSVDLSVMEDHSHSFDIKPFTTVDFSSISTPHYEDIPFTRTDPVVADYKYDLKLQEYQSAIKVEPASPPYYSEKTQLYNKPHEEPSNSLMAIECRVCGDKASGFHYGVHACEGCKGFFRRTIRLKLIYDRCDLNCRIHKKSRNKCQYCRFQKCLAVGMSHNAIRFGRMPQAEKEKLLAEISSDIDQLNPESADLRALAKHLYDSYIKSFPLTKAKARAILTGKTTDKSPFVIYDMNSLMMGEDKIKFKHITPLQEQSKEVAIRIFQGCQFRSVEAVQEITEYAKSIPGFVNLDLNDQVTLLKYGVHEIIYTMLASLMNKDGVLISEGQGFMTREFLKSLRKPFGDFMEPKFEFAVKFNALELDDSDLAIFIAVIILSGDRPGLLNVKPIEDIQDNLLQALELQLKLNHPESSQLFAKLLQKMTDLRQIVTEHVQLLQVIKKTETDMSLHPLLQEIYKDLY

[6] = target: T2, Glucocorticoid receptor (Homo sapiens); assay: Activation of glulcocorticoid receptor (unknown origin) expressed in human U2OS cells at 1 uM in presence of 0.1 uM dexamethasone incubated for 24 hrs by luciferase reporter gene assay
[7] = target: T3, Peroxisome proliferator-activated receptor gamma (Homo sapiens); assay: Activation of PPARG (unknown origin) expressed in human U2OS cells at 1 uM in presence of 10 uM rosiglitazone incubated for 24 hrs by luciferase reporter gene assay
[8] = target: T1, Estrogen receptor (Homo sapiens); assay: Activation of ERalpha (unknown origin) expressed in human U2OS cells at 1 uM in presence of 0.01 uM E2 incubated for 24 hrs by luciferase reporter gene assay
[9] = target: T2, Glucocorticoid receptor (Homo sapiens); assay: Activation of glulcocorticoid receptor (unknown origin) expressed in human U2OS cells at 0.2 uM in presence of 0.1 uM dexamethasone incubated for 24 hrs by luciferase reporter gene assay
[10] = target: T2, Glucocorticoid receptor (Homo sapiens); assay: Activation of glulcocorticoid receptor (unknown origin) expressed in human U2OS cells at 0.2 uM incubated for 24 hrs by luciferase reporter gene assay
[11] = target: T3, Peroxisome proliferator-activated receptor gamma (Homo sapiens); assay: Activation of PPARG (unknown origin) expressed in human U2OS cells at 0.2 uM incubated for 24 hrs by luciferase reporter gene assay
[12] = target: T1, Estrogen receptor (Homo sapiens); assay: Activation of ERalpha (unknown origin) expressed in human U2OS cells at 0.2 uM incubated for 24 hrs by luciferase reporter gene assay
[13] = target: Estrogen receptor beta (Homo sapiens) (UniProt Q92731); assay: Activation of ERbeta (unknown origin) expressed in human U2OS cells at 0.2 uM in presence of 0.01 uM E2 incubated for 24 hrs by luciferase reporter gene assay
[14] = target: T3, Peroxisome proliferator-activated receptor gamma (Homo sapiens); assay: Activation of PPARG (unknown origin) expressed in human U2OS cells at 0.2 uM in presence of 10 uM rosiglitazone incubated for 24 hrs by luciferase reporter gene assay
[15] = target: Estrogen receptor beta (Homo sapiens) (UniProt Q92731); assay: Activation of ERbeta (unknown origin) expressed in human U2OS cells at 0.2 uM incubated for 24 hrs by luciferase reporter gene assay
[16] = target: T1, Estrogen receptor (Homo sapiens); assay: Activation of ERalpha (unknown origin) expressed in human U2OS cells at 0.2 uM in presence of 0.01 uM E2 incubated for 24 hrs by luciferase reporter gene assay

Measured: Activity

Nc1cc(F)ccc1NC(=O)c1ccc(CNC(=O)/C=C/c2cccnc2)cc1
active: [1] | [2] | [3] | [4] | [5] | [6] | [7] | [8]

CC(/C=C/C(=O)NO)=C\[C@@H](C)C(=O)c1ccc(N(C)C)cc1
active: [9] | [10] | [11] | [12] | [13] | [14] | [15] | [16]

Nc1ccccc1NC(=O)c1ccc(CNC(=O)OCc2cccnc2)cc1
active: [1] | [2] | [3] | [4] | [5] | [6] | [7] | [8]
